Data on 9 compounds can be found in patent publication US10457685B2, “[1,2,3]triazolo[4,5-D]pyrimidine derivatives with affinity for the type-2 cannabinoid receptor” (Hoffmann-La Roche Inc., priority 2016, dated 2019).

The Ki is a measure of affinity in units of concentration, obtained from inhibition or displacement. Low readings indicate higher affinity, high ones lower affinity.

Experiment [1] has as its target human CB2 receptor (CNR2) (Homo sapiens (Human), UniProt P34972). The experiment can be described thus: Radioligand binding assay ([3H]-CP-55,940), membranes of HEK cells expressing human CNR2. As to conditions: 2.6 nM [3H]-CP-55,940, HEK cell membranes, 1 h at 30° C. The method, then: (§1) Radioligand Binding Assay
(§2) The affinity of the compounds of the invention for cannabinoid receptors was determined using recommended amounts of membrane preparations (PerkinElmer) of human embryonic kidney (HEK) cells expressing the human CNR1 or CNR2 receptors in conjunction with 1.5 or 2.6 nM [3H]-CP-55,940 (Perkin Elmer) as radioligand, respectively. Binding was performed in binding buffer (50 mM Tris, 5 mM MgCl2, 2.5 mM EDTA, and 0.5% (wt/vol) fatty acid free BSA, pH 7.4 for CB1 receptor and 50 mM Tris, 5 mM MgCl2, 2.5 mM EGTA, and 0.1% (wt/vol) fatty acid free BSA, pH 7.4 for CB2 receptor) in a total volume of 0.2 mL for 1 h at 30° C. shaking. The reaction was terminated by rapid filtration through microfiltration plates coated with 0.5% polyethylenimine (UniFilter GF/B filter plate; Packard). Bound radioactivity was analyzed for Ki using nonlinear regression analysis (Activity Base, ID Business Solution, Limited), with the Kd values for [^3H]CP55,940 determined from saturation experiments.

The target of experiment [2] is human CB1 receptor (CNR1) (Homo sapiens (Human), UniProt P21554). Put plainly: Radioligand binding assay ([3H]-CP-55,940), membranes of HEK cells expressing human CNR1. As to conditions: 1.5 nM [3H]-CP-55,940, HEK cell membranes, 1 h at 30° C. The protocol:
as §1, §2

Chain of human CB2 receptor (CNR2) (P34972 whole entry): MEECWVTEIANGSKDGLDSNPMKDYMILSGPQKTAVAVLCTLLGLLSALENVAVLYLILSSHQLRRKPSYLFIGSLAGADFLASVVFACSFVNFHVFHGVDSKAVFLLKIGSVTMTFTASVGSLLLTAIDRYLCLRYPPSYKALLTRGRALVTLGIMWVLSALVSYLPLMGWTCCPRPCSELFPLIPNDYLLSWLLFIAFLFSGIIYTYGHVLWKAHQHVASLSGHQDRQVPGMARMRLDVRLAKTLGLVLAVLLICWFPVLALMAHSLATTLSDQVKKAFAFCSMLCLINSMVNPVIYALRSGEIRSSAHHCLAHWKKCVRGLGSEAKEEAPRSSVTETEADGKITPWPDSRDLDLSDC
Chain of human CB1 receptor (CNR1) (P21554 whole entry): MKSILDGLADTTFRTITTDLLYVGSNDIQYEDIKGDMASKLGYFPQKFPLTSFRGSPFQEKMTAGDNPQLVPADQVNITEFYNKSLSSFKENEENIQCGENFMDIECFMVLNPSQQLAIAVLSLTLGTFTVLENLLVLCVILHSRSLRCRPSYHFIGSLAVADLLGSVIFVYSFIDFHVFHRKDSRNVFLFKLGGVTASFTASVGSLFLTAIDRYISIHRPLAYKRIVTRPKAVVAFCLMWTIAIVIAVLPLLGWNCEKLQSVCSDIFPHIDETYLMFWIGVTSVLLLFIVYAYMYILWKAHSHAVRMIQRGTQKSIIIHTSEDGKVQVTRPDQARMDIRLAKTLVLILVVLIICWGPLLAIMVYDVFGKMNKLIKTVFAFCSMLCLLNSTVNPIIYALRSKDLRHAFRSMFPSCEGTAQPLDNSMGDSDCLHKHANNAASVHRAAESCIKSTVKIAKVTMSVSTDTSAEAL

On to `CC(C)(C)c1nc(N2CCC(F)(F)C2)c2nnn(Cc3ccccc3CCSSCCO)c2n1` [Example 29, 2-[2-[2-[[5-tert-Butyl-7-(3,3-difluoropyrrolidin-1-yl)triazolo[4,5-d]pyrimidin-3-yl]methyl]phenyl]ethyldisulfanyl]ethanol], for which the Ki in experiment [1] stood at 6 nM; in experiment [2] it was 205 nM.

Regarding `CC(C)(C)c1nc(N2CCC(F)(F)C2)c2nnn(Cc3ccccc3CCS(=O)(=O)n3nnc4ccccc43)c2n1` [Example 30, 3-[[2-[2-(Benzotriazol-1-ylsulfonyl)ethyl]phenyl]methyl]-5-tert-butyl-7-(3,3-difluoropyrrolidin-1-yl)triazolo[4,5-d]pyrimidine], the Ki in experiment [1] is 246 nM; in experiment [2], more than 10000 nM.

Turning to `CC(C)(C)c1nc(N2CCC(F)(F)C2)c2nnn(Cc3ccccc3CCS(=O)(=O)F)c2n1` [Example 31, 2-[2-[[5-tert-Butyl-7-(3,3-difluoropyrrolidin-1-yl)triazolo[4,5-d]pyrimidin-3-yl]methyl]phenyl]ethanesulfonyl fluoride], the figures for the Ki in experiment [1] and in experiment [2] were 27 nM and 1360 nM, respectively.

With `CC(C)(C)c1nc(N2CCC(F)(F)C2)c2nnn(Cc3ccccc3CCSSc3ccccn3)c2n1` [Example 32, 5-tert-Butyl-7-(3,3-difluoropyrrolidin-1-yl)-3-[[2-[2-(pyridin-2-yldisulfanyl)ethyl]phenyl]methyl]triazolo[4,5-d]pyrimidine], the Ki stood at 72 nM in experiment [1] and 1860 nM in experiment [2].

For `CC(C)(C)c1nc(N2CCC(F)(F)C2)c2nnn(Cc3ccccc3CCSSCCN)c2n1` [Example 33, 2-[2-[2-[[5-tert-Butyl-7-(3,3-difluoropyrrolidin-1-yl)triazolo[4,5-d]pyrimidin-3-yl]methyl]phenyl]ethyldisulfanyl]ethanamine], the Ki in experiment [1] came to 63 nM; in experiment [2], 588 nM.

Consider `NCCSSCCc1ccccc1Cn1nnc2c(N3CCC(F)(F)C3)nc(C(F)(F)c3ccccc3)nc21` [Example 34, 2-[2-[2-[[5-[Difluoro(phenyl)methyl]-7-(3,3-difluoropyrrolidin-1-yl)triazolo[4,5-d]pyrimidin-3-yl]methyl]phenyl]ethyldisulfanyl]ethanamine], for which the Ki in experiment [1] stood at 177 nM; in experiment [2], 230 nM.

For the compound `CC(C)(C)c1nc(N2CCC(F)(F)C2)c2nnn(Cc3ccccc3CCSSCC(O)CO)c2n1` (stereo not drawn) [Example 35, 3-[2-[2-[[5-tert-Butyl-7-(3,3-difluoropyrrolidin-1-yl)triazolo[4,5-d]pyrimidin-3-yl]methyl]phenyl]ethyldisulfanyl]propane-1,2-diol], the Ki in experiment [1] came out at 5 nM; in experiment [2] it was 135 nM.

For the compound `CC(C)(C)c1nc(N2CCC(F)(F)C2)c2nnn(Cc3ccccc3SSCCO)c2n1` [Example 36, 2-[[2-[[5-tert-Butyl-7-(3,3-difluoropyrrolidin-1-yl)triazolo[4,5-d]pyrimidin-3-yl]methyl]phenyl]disulfanyl]ethanol], the Ki in experiment [1] came to 95 nM; in experiment [2] it was 560 nM.

Regarding `C#Cc1cccc(S(=O)(=O)F)c1Cn1nnc2c(N3CCC(F)(F)C3)nc(C(C)(C)C)nc21` [Example 38, 2-[[5-tert-Butyl-7-(3,3-difluoropyrrolidin-1-yl)triazolo[4,5-d]pyrimidin-3-yl]methyl]-3-ethynylbenzenesulfonyl fluoride], the Ki stood at 1 nM in experiment [1] and 311 nM in experiment [2].
